Ends that are not written are not given here. PEG = not defined here

Ten substances from patent US20220280594A1, “APPLICATION OF POLYPEPTIDE OR DERIVATIVE THEREOF” (CHENGDU HUITAI BIOMEDICINE CO., LTD., priority 2019, published 2022) can be followed below.

Format in all cases: cell-based
The subject of assay [1] is human lung squamous carcinoma cells (NCI-H226). Description: scratch assay, migration of NCI-H226 cells. The following applies: NCI-H226, 10 μM, 48 hours; control group 65.31 ± 3.19. The gist of the method:
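A straight scratch was made in confluent NCI-H226 monolayers (1-2×10^5 cells/well). Cells were then kept 48 h in 2% FBS medium with 10 μM polypeptide or PBS control, triplicate wells. Migration rate (%) = (original − current scratch width)/original width ×100, from imaged scratch widths.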

Assay [2] concerns human pancreatic cancer cells (PANC-1). The assay can be described thus: transwell migration assay, PANC-1 cells. The following applies: PANC-1 transwell migration, 10 μM, 24 hours; control group 360 ± 60. The method, boiled down: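 Serum-free PANC-1 cells placed in the upper transwell chamber with complete medium below; after 4-5 h, peptide added to the upper chamber at a final 10 μM. Migration ran 24 h at 37 °C; cells on the membrane underside were methanol-fixed, crystal violet-stained and counted by microscopy.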

For assay [3], the system named is human liver adenocarcinoma cells (SK-HEP-1). Description: transwell invasion assay, SK-HEP-1 cells. The following applies: SK-HEP-1 transwell invasion, 10 μM, 24 hours; control group 767 ± 91. The gist of the method:
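Serum-free SK-HEP-1 cells were seeded in matrigel-coated upper chambers over complete medium. After 4-5 h, peptide was added to the upper chamber at 10 μM final. Following 24 h at 37° C., invaded cells were fixed, crystal violet-stained, imaged and counted.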

Assay [4] relates to human melanoma cells (A375). Description: scratch assay, migration of A375 cells. The following applies: A375, 10 μM, 48 hours; control group 44.03 ± 6.21. The gist of the method:
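Monolayers scratched, washed with PBS and cultured 48 hours in 2% FBS medium with polypeptides N1-N54 at 10 μM or PBS control, three wells per group. Migration rate (%) = (original − current scratch width)/original width×100, from imaged scratch widths.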

For assay [5], the system named is human oral epidermoid carcinoma KB cells. Description: scratch assay, migration of KB cells. The following applies: 10 μM, 48 hours, control group 54.03 ± 4.21. The method, boiled down: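 Monolayers of KB cells were scratched, washed with PBS, then cultured 48 hours in 2% FBS medium containing test polypeptide (10 μM) or PBS control, in triplicate wells. From images, migration rate (%) = (original − current scratch width)/original width × 100.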

For assay [6], the system named is human pharyngeal squamous-cell carcinoma cells (Fadu). Description: scratch assay, migration of Fadu cells. The following applies: 10 μM, 48 hours, control group 28.76 ± 4.08. The gist of the method:
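Confluent Fadu monolayers scratched, then cultured 48 h with 10 μM polypeptide in medium with 2% FBS; PBS control, triplicate wells. Migration rate (%) = (original − current scratch width)/original width × 100, from ≥3 images per well.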

In assay [7] the test system is human colon cancer cells (HCT-116). Description: scratch assay, migration of HCT-116 cells. The following applies: HCT-116, 10 μM, 48 hours; control group 47.78 ± 6.07. The method, boiled down:
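Confluent HCT-116 monolayers were scratched, washed and cultured 48 h in 2% FBS medium with peptide at 10 μM versus PBS control, triplicate wells. Migration rate (%) = (original minus current scratch width)/original width × 100, from at least 3 images per well.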

Assay [8] deals with human thyroid cancer cells (FRO). The assay can be described thus: scratch assay, migration of FRO cells. The following applies: 10 μM, 48 hours, control group 60.34 ± 8.32. The method, boiled down:
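FRO monolayers were scratched, washed, and cultured 48 h in 2% FBS medium with polypeptide derivatives at 10 μM or PBS control, three wells per group. Migration rate (%) = (original − current scratch width)/original width × 100, measured from images.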

With “N25: SEQ ID NO: 1 with substitution N18R and addition of two amino acids at the carboxyl terminal (YRVRFLAKENVTQDAEDRCT)”, the “Migration rate (%) (mean ± SD, P)” value in assay [1] was 15.03 ± 8.16,*** %; in assay [4], 17.67 ± 2.41,** %; in assay [5], 18.32 ± 2.63,** %; in assay [6], 9.89 ± 2.47,*** %; in assay [7] it was 18.70 ± 2.39,** %; in assay [8], 14.31 ± 2.47,*** %. In addition, in assay [2], the “Number of cells (mean ± SD, P), migrated cells” value is listed as 217 ± 31,**. The “Number of cells (mean ± SD, P), invaded cells” value in assay [3] is 411 ± 30,***.
Consider “N26: SEQ ID NO: 1 with substitution A15R, addition of one amino acid at the amino terminal and one at the carboxyl terminal (FYRVRFLAKENVTQDREDNC)”, for which the “Migration rate (%) (mean ± SD, P)” value in assay [1] is on record as 18.41 ± 7.90,*** %; in assay [4], 12.23 ± 2.48,*** %; in assay [5] it was 23.71 ± 4.86,* %; in assay [6] it was 13.70 ± 4.57,** %; in assay [7] it was 9.81 ± 2.92,*** %; in assay [8], 11.21 ± 4.01,*** %. Further, the “Number of cells (mean ± SD, P), migrated cells” value in assay [2] is given as 119 ± 17,***. Moreover, the “Number of cells (mean ± SD, P), invaded cells” value in assay [3] is recorded as 371 ± 27,***.
As to “N27: SEQ ID NO: 1 with addition of one amino acid at the carboxyl terminal and PEG modification at the carboxyl terminal (YRVRFLAKENVTQDAEDNC-{PEG}; reading uncertain)”, the “Migration rate (%) (mean ± SD, P)” value in assay [1] is recorded as 31.19 ± 5.96,*** %; in assay [4], 12.52 ± 3.78,*** %; in assay [5], 12.53 ± 3.88,** %; in assay [6], 15.99 ± 3.96,* %; in assay [7] it was 24.14 ± 3.00,** %; in assay [8] it was 13.42 ± 3.35,*** %. Also, the “Number of cells (mean ± SD, P), migrated cells” value in assay [2] is on record as 143 ± 25,***. Also, the “Number of cells (mean ± SD, P), invaded cells” value in assay [3] was 369 ± 52,***.
Consider “N28: SEQ ID NO: 1 with deletion of positions 1-2 and 18 and PEG modification at the amino terminal ({PEG}-VRFLAKENVTQDAED; reading uncertain)”, for which the “Migration rate (%) (mean ± SD, P)” value in assay [1] is reported as 18.08 ± 7.38,*** %; in assay [4] it was 10.80 ± 2.66,*** %; in assay [5], 11.24 ± 3.52,*** %; in assay [6], 15.23 ± 3.59,* %; in assay [7] it was 9.19 ± 3.22,*** %; in assay [8] it was 8.77 ± 2.85,*** %. For the same substance, the “Number of cells (mean ± SD, P), migrated cells” value in assay [2] is 148 ± 21,***. Besides, the “Number of cells (mean ± SD, P), invaded cells” value in assay [3] was 214 ± 31,****.
For “N29: SEQ ID NO: 1 with deletion of positions 1-5 and 15-18 and PEG modification at the amino terminal ({PEG}-LAKENVTQD; reading uncertain)”, the “Migration rate (%) (mean ± SD, P)” value was 40.30 ± 4.81,** % in assay [1]; 14.01 ± 4.22,*** % in assay [4]; 8.07 ± 1.79,*** % in assay [5]; 12.27 ± 2.23,** % in assay [6]; 8.24 ± 2.32,*** % in assay [7]; 5.12 ± 2.67,*** % in assay [8]. Besides, in assay [2], the “Number of cells (mean ± SD, P), migrated cells” value was 178 ± 31,***. For the same substance, the “Number of cells (mean ± SD, P), invaded cells” value in assay [3] is reported as 322 ± 56,***.
With “N30: SEQ ID NO: 1 with deletion of positions 1-5 and 15-18 and PEG modification at the carboxyl terminal (LAKENVTQD-{PEG}; reading uncertain)”, the “Migration rate (%) (mean ± SD, P)” value in assay [1] is reported as 13.91 ± 7.36,*** %; in assay [4] it was 6.96 ± 2.18,*** %; in assay [5] it was 8.75 ± 3.35,*** %; in assay [6] it was 13.85 ± 3.59,** %; in assay [7], 12.41 ± 2.99,*** %; in assay [8], 5.16 ± 1.67,*** %. The “Number of cells (mean ± SD, P), migrated cells” value in assay [2] is recorded as 243 ± 33,*. In addition, the “Number of cells (mean ± SD, P), invaded cells” value in assay [3] is listed as 85 ± 20,****.
“N31: SEQ ID NO: 1 with deletion of positions 3, 4, 11 and 15-18 and PEG modification at the carboxyl terminal (YRFLAKENTQD-{PEG}; reading uncertain)”: the “Migration rate (%) (mean ± SD, P)” value in assay [1] was 15.70 ± 8.17,*** %; in assay [4], 12.5 ± 2.29,*** %; in assay [5], 7.17 ± 1.67,*** %; in assay [6], 12.13 ± 5.10,** %; in assay [7] it was 7.39 ± 2.06,*** %; in assay [8], 9.77 ± 1.96,*** %. The “Number of cells (mean ± SD, P), migrated cells” value in assay [2] was 217 ± 40,**. Further, the “Number of cells (mean ± SD, P), invaded cells” value in assay [3] is on record as 269 ± 17,****.
“N32: SEQ ID NO: 1 with deletion of positions 1-3, addition of one amino acid and PEG modification at the carboxyl terminal (RFLAKENVTQDAEDNC-{PEG}; reading uncertain)”: the “Migration rate (%) (mean ± SD, P)” value in assay [1] is on record as 19.47 ± 6.42,*** %; in assay [4] it was 18.22 ± 3.95,** %; in assay [5], 11.70 ± 2.95,*** %; in assay [6], 14.63 ± 4.96,* %; in assay [7], 8.17 ± 1.07,*** %; in assay [8], 7.83 ± 2.06,*** %. Also, the “Number of cells (mean ± SD, P), migrated cells” value in assay [2] was 219 ± 13,***. Also, the “Number of cells (mean ± SD, P), invaded cells” value in assay [3] is reported as 252 ± 7,****.
On to “N33: SEQ ID NO: 1 with deletion of positions 1-5, addition of one amino acid and PEG modification at the carboxyl terminal (LAKENVTQDAEDNC-{PEG}; reading uncertain)”, for which the “Migration rate (%) (mean ± SD, P)” value is given as 40.73 ± 4.87,** % in assay [1]; 9.98 ± 3.11,*** % in assay [4]; 6.01 ± 1.62,*** % in assay [5]; 10.28 ± 2.06,** % in assay [6]; 12.85 ± 3.12,*** % in assay [7]; 7.03 ± 2.02,*** % in assay [8]. Also, the “Number of cells (mean ± SD, P), migrated cells” value in assay [2] is on record as 178 ± 14,***. The “Number of cells (mean ± SD, P), invaded cells” value in assay [3] is reported as 197 ± 32,****.
For “N34: SEQ ID NO: 1 with A15R, addition of one amino acid at the carboxyl terminal, PEG modification at the amino terminal ({PEG}-YRVRFLAKENVTQDREDNC; reading uncertain)”, the “Migration rate (%) (mean ± SD, P)” value in assay [1] was 36.53 ± 4.35,** %; in assay [4], 15.11 ± 2.01,*** %; in assay [5], 12.88 ± 1.71,*** %; in assay [6] it was 7.38 ± 2.85,*** %; in assay [7], 17.96 ± 3.84,** %; in assay [8] it was 8.74 ± 3.40,*** %. In addition, the “Number of cells (mean ± SD, P), migrated cells” value in assay [2] was 248 ± 19,*. For the same substance, the “Number of cells (mean ± SD, P), invaded cells” value in assay [3] is given as 187 ± 38,****.
